Earlier results, collected in US20160287529A1, “METHOD FOR TREATING AND PREVENTING RECURRENT INTERDIGITAL TINEA PEDIS (ATHLETE'S FOOT) DISEASE” (priority 2015, published 2016).

Tested on: fungal infections of the skin and nails of the human foot
Settings: topical treatment

SMILES | effectiveness compared with the allylamines
Cc1cccc(N(C)C(=S)Oc2ccc3ccccc3c2)c1 [tolnaftate] | less effective
C=CCCCCCCCCC(=O)O [undecenoic acid] | less effective
